Source: patent US20150366839A1, “Schisantherin A for the treatment of neurodegenerative diseases” (priority 2014, published 2015)
Like-named read-outs stand apart in the source and are kept apart here.

Key:
[1] = system: zebrafish larvae; assay type: in vivo
Protocol: (§1) The wild type zebrafish was used for this study.
Zebrafish behaviour was analyzed using a digital video tracking system (Viewpoint ZebraLab system). The system consists of a digital video camera connected to a computer system running the analysis software ZebraLab Man Rev 3.6B.
Moreover, 6-OHDA treatment also markedly altered the swimming behavior of zebrafish. […] Values in FIG. 9 represent the mean±SEM of 12 fish larvae per group of 3-time independent experiments. ###P<0.005 versus control group; *p<0.05, **p<0.01 and *** p<0.005 versus 6-OHDA group. […] The total swimming distance in 10 min travelled by the zebrafish larvae was decreased after exposure to 6-OHDA.

[2] = system: DA neurons in zebrafish; experiment: Anti-TH whole-mount immunostaining, 6-OHDA-induced DA neuron loss; assay type: in vivo; details: 3 μM positive control, 250 μM 6-OHDA, 2 days
Protocol: as §1
Zebrafish at one dpf were exposed to 250 μM 6-OHDA in the presence or absence of 10 μM Schi A or 3 μM nomifensine (Nom, a DAT (dopamine transporter) inhibitor used as a positive control) for 2 days. Then zebrafish were collected for immunostaining to detect the DA neurons. Zebrafish were fixed in 4% paraformaldehyde in PBS for 30 min, rinsed, and stored at −20° C. in 100% MtOH. Whole-mount immunostaining was done by standard methods (Zhang, Cheang et al. 2011). Briefly, paraformaldehyde fixed samples were blocked (2% goat serum and 0.1% BSA in PBST,) for 1 h at room temperature. A mouse monoclonal anti-tyrosine hydroxylase antibody (1:200 diluted in blocking buffer) was used as the primary antibody and incubated overnight with the sample at 4° C. […] Semi-quantification TH^+ cells were assessed by an investigator blinded to drug treatment history of zebrafish using Image-Pro Plus 6.0 software (Media Cybernetics, Silver Spring, Md., USA). Results are expressed as percentage of area of TH^+ cells in untreated control group.
To further evaluate the neuroprotective effect of SchiA in vivo, the inventors examined the DA neurons in zebrafish by whole-mount immunofluorescent staining with an antibody against tyrosine hydroxylase (TH). […] Data is expressed as percentage of the control group. […]

[3] = system: SH-SY5Y cells; experiment: MTT neuroprotection against MPP+-induced cell damage; assay type: cell-based; details: for protection against MPP+-induced cell damage (cell viability): various concentrations 12 h before MPP+
Protocol: (§2) Human neuroblastoma SH-SY5Y cells were purchased from the American Type Culture Collection (ATCC, Manassas, Va., USA) and cultured in a humidified 5% (v/v) CO2 atmosphere in 37° C. in Dulbecco's Modified Eagle Medium (DMEM) (Life technologies, NY, USA) supplemented with 10% FBS, 1% penicillin (100 U/mL) and streptomycin (100 μg/mL). All experiments were carried out 48 h after the cells were seeded.
In another study, SH-SY5Y cells were seeded in 96-well plates (1×10^4 cells/well) for 48 h. SH-SY5Y cells were pre-treated with different concentrations of the five lignans for 12 h and the cell viability was checked by MTT assay. SH-SY5Y cells were pre-treated with different concentrations of the five lignans for 12 h and then exposed to 2 mM MPP or vehicle for 36 h. Cells were incubated at 37° C. for 4 h in 0.5 mg/mL MTT solution (prepared in serum free DMEM medium). The medium was then discarded and 100 μL of DMSO was added to each well to dissolve the violet-formazan crystals. The absorbance at 570 nm with 655 nm as a reference wavelength was measured by a multi-label counter (Wallac VICTOR3TMV, Perkin Elmer, Netherlands). Cell viability was expressed as a percentage of the value of the cells without MPP treatment. The LC50 and EC50 were calculated by GraphPad Prism V5.0 (GraphPad Software, Inc., San Diego, Calif.).
(§3) To evaluate the cytotoxicity of five selected lignans of S. chinensis, SH-SY5Y cells were treated with various concentrations of the tested compounds for 12 h and the cell viability was measured using the MTT assay. […] To further study the neuroprotective activities of the five lignans in vitro, cells were treated with various concentrations of the tested compounds for 12 h before exposed to MPP^+. […] Values represent mean±S.D. ###P<0.005 versus control group; *p<0.05, **p<0.01 and *** p<0.005 versus MPP group. […] The therapeutic index of SchiA and SC were 14.9 and 8.8, respectively.
The inventors also investigated the contribution of the PI3K/Akt pathway in the neuroprotective effects of SchiA. The inventors measured phosphorylation-Akt (p-Akt) levels after pre-treated with 60 μM SchiA for 12 h and then exposed to 2 mM MPP for another 36 h. […] And MPP^+-induced down-regulation of Akt expressions was inhibited by SchiA treatment. […] To further validate whether the activation of PI3K/Akt signaling pathway, the inventors determined the blocking effect of PI3K/Akt inhibitor such as AKT inhibitor IV on the in vitro neuroprotective effect of SchiA. SH-SY5Y cells were pre-incubated with Akt inhibitor IV (2 μM) for 1 h and then treated with SchiA for 12 h. Drug-treated cells were further treated with 2 mM MPP for another 36 h, MTT assay was used to determinate cell viability.

[4] = system: SH-SY5Y cells; experiment: MTT neuroprotection against 6-OHDA-induced cytotoxicity; assay type: cell-based, Human; details: for protection against 6-OHDA-induced damage (cell viability): 3, 6, 12, 25, 50 and 100 μM for 12 h before 400 μM 6-OHDA 4 h
Protocol: as §2
(§4) Cell viability was determined by 3-(4,5-dimethyl-2-thiazolyl) 2,5-diphenyl-2H-tetrazolium bromide (MTT) assay (Sigma-Aldrich, USA). SH-SY5Y cells were seeded in 96-well plates (1×10^4 cells/well) for 48 h. SH-SY5Y cells were pre-treated with different concentrations of the five lignans (i.e. Schizandrin A, Schizandrin B, SC, Schizandrol A and SchiA) for 12 h and the cell viability was checked by MTT assay. Otherwise, SH-SY5Y cells were pre-treated with different concentrations of the five lignans for 12 h and then exposed to 400 μM 6-OHDA for 4 h. Cells were incubated at 37° C. for 4 h in 0.5 mg/mL MTT solution (prepared in serum free DMEM medium). The medium was then removed, and 100 μL of DMSO was added to each well to dissolve the violet-formazan crystals. The absorbance at 570 nm with 655 nm as a reference wavelength was measured by a multi-label counter (Wallac VICTOR3TMV, Perkin Elmer, Netherlands). Cell viability was expressed as a percentage of the value of the cells without 6-OHDA treatment. The LC50 and EC50 were calculated by GraphPad Prism V5.0 (GraphPad Software, Inc., San Diego, Calif.).
To further study the neuroprotective activities of the five lignans against 6-OHDA-induced cytotoxicity, cells were treated with various concentrations (3, 6, 12, 25, 50 and 100 μM) of the tested compounds for 12 h before exposed to 400 μM 6-OHDA for 4 h.

[5] = system: SH-SY5Y cells; experiment: MTT cytotoxicity of the five lignans; assay type: cell-based
Protocol: as §2, §4
To evaluate the cytotoxicity of five selected lignans of S. chinensis, SH-SY5Y cells were treated with various concentrations of the tested compounds for 12 h and the cell viability was measured using the MTT assay.
as §3

[6] = system: TH-positive neurons in the SNpc; assay type: in vivo, C57BL/6 mice; details: 10 mg/kg/day i.g. positive control, then MPTP
Protocol: Male C57BL/6 mice (20±2 g body weight, 6-8 weeks of age) were purchased from the Laboratory Animal Center of Guangdong Province and were fed six animals per cage, under a 12 h light/dark cycle with ad libitum access to food and water. Mice were handled daily and allowed 3 days to acclimate before each treatment. Six groups of mice (n=7/group, total 42 mice) were assigned for the neuroprotective study in vivo. SchiA at different concentrations (30, 100 or 300 mg/kg/day), positive control drug (Selegiline, 10 mg/kg/day) or vehicle (Tween-80/ml propylene glycol/alcohol/5% PVA, 1:1:1:17, v/v/v/v) were administered by intragastric gavage (i.g.) daily for 14 days. Then mice were injected by intraperitoneal (i.p.) with 30 mg/kg MPTP hydrochloride (Sigma-Aldrich) or physiological saline daily on days 15-19 (total 5 days). In order to allow for the full conversion of MPTP to its active metabolite MPP^+, a further 3 days of resting period followed (Levites, Weinreb et al. 2001). All animal experiments were conducted according to the ethical guidelines for animal experiment of Jinan University. The experimental protocols were approved by the Ethics Committee for Animal Experiments of Jinan University (permit number 20110810).
Three days after MPTP treatment, animals were anesthetized by i.p. administration of […] chloral hydrate (10% (w/v) dissolved in distilled water) and perfused intracardially with 100 mL PBS (0.1 mmol/L, pH 7.4) followed by 150 mL 4% paraformaldehyde (PFA) in PBS. After intracardial perfusion, brains were collected and post-fixed in 4% PFA for another 24 h at 4° C., embedded in paraffin, and cut into 6 μm coronal sections encompassing the entire SNpc. As the decrease of TH-positive neurons in response to MPTP treatment is the most prominent at medial levels of the SNpc (Hayley, Crocker et al. 2004), the inventors selected the sections from the area encompassed between −3.08 and −3.20 from bregma to perform immunohistochemisty. Immunohistochemistry of brain tissues was performed as previously described (He, Yamauchi et al. 2008; Yokoyama, Takagi et al. 2008) with minor modifications. Sections were deparaffinized in xylene and rehydrated in a graded ethanol series. […] Non-specific protein binding was blocked with 10% bovine serum in PBS (0.01 M, pH 7.4). Between each treatment, the slides were washed at least three times with deionized water for 5 minutes. […] The results were analyzed by counting the numbers of TH-positive cells at ×10 magnifications on a stereomicroscope (BX51, Olympus Corp. Japan). TH-positive cells in 6 position-matched sections of each mouse were counted manually by operator who was blinded to the drug treatment. […]

Row | Compound | protection against MPP+-induced cell damage (cell viability) [3] | protection against 6-OHDA-induced damage (cell viability) [4] | CC50 [5] [µM] | other results
1 | N[C@@H](Cc1ccc(O)c(O)c1)C(=O)O [L-dopa] |  |  |  | deficit of locomotor activity of 6-OHDA-treated zebrafish ([1]; 150 μM positive control with 6-OHDA): rescued the deficit of locomotor activity of 6-OHDA-treated zebrafish to normal
2 | CN1Cc2c(N)cccc2C(c2ccccc2)C1 (stereo not shown) [Nomifensine, nomifensine, reference compound] |  |  |  | deficit of locomotor activity of 6-OHDA-treated zebrafish ([1]; 3 μM positive control with 6-OHDA): rescued the deficit of locomotor activity of 6-OHDA-treated zebrafish to normal; 6-OHDA-induced dopaminergic neuron loss (area of TH+ cells) [2]: considerable protection
3 | COc1c2c(cc3c1-c1c(cc4c(c1OC)OCO4)C[C@H](C)[C@H](C)C3)OCO2 [SC, Schizandrin C] | protect against MPP^+-induced cell damage in a dose-dependent manner | protected SH-SY5Y cells against 6-OHDA-induced damage in a dose-dependent manner |  | EC50 ([3]; pre-treated 12 h, then 2 mM MPP+ 36 h): 15.3 µM; EC50 ([4]; pre-treated 12 h, then 400 μM 6-OHDA 4 h): 15.3 µM; CC50 ([5]; treated 12 h, MTT, read-out: LC50 (the source's name)): 135 µM
4 | COc1cc2c(c(OC)c1OC)-c1c(cc(OC)c(OC)c1OC)C[C@H](C)[C@H](C)C2 [Schizandrin A, reference compound] | did not show protective effects | did not show protective effects | 233 | 
5 | COc1cc2c(c(OC)c1OC)-c1c(cc3c(c1OC)OCO3)CC(C)C(C)C2 (stereo not shown) [Schizandrin B, reference compound] | did not show protective effects | did not show protective effects | 189 | 
6 | COc1cc2c(c(OC)c1OC)-c1c(cc(OC)c(OC)c1OC)C[C@](C)(O)[C@@H](C)C2 [Schizandrol A, reference compound] | did not show protective effects | did not show protective effects | 155 | 
7 | C#CCN(C)[C@H](C)Cc1ccccc1 [selegiline, reference compound] |  |  |  | TH-positive neurons in SNpc [6]: 80±15 cells/section
8 | AKT inhibitor IV [reference compound] |  |  |  | effect on the protective effect of SchiA on MPP+-induced cytotoxicity ([3]; 2 μM 1 h pre-incubation, then SchiA 12 h, 2 mM MPP+ 36 h, MTT): clearly abrogate the protective effect of SchiA
